In assay [1] the target is T1, FAP-expressing human WI-38 fibroblasts (Homo sapiens, UniProt Q12884).
T1 construct: FAP-expressing human WI-38 fibroblasts (ECACC) were cultured in EMEM; host or cells: WI-38 human fibroblasts
T1 sequence (Q12884 1-760): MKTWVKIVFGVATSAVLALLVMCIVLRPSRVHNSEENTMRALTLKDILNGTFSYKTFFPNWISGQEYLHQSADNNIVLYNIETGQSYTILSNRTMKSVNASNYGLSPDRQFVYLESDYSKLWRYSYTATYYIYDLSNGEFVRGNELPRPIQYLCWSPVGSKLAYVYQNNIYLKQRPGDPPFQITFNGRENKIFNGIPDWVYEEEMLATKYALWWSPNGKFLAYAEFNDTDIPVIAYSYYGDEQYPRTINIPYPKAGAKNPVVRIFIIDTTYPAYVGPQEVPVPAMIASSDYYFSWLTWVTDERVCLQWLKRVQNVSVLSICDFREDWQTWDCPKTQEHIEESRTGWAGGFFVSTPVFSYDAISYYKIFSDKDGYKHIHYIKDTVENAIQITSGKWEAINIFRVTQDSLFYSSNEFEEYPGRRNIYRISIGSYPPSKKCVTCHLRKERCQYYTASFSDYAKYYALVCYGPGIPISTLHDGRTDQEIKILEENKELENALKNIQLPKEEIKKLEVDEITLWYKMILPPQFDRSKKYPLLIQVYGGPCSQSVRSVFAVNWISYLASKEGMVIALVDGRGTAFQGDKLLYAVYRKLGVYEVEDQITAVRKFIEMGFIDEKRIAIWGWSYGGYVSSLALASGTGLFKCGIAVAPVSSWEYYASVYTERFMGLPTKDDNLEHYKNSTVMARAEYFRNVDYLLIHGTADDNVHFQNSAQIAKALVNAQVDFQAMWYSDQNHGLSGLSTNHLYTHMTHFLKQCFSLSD
As to the kind of experiment: Competitive FACS binding assay. The following applies: pIC50 Category (FACS), competition with 3 nM Cy5-labeled compound, 4° C., 1 hour. The protocol: Cells were analyzed in an Attune NxT flow cytometer. […]
(Flow cytometry measures light scatter and fluorescence of single cells or particles in a stream.)

Assay [2] has as its target T2, Human recombinant FAP (Homo sapiens, UniProt Q12884).
T2 sequence (Q12884 1-760): T1 sequence (Q12884 1-760)
As to the kind of experiment: Surface plasmon resonance (Biacore) assay. The class given is binding.

In assay [3] the target is T2, Human recombinant FAP. As to the kind of experiment: FRET-based FAP protease activity assay. The class given is biochemical. The arrangement: purchased R&D systems 3715-SE. As to conditions: pIC50 Category (Activity), FRET substrate, 37° C.

From patent US20220315554A1, “COMPOUNDS COMPRISING A […] LIGAND AND USE THEREOF” (priority 2019, published 2022) come the findings set out here.

pIC50, pKd: −log10 of the molar value. Numbered stars: 1 amine (or outer) side, 2 acyl side, 3 side chain; on linkers, the order of the positions; unused ones are H or OH. Bridge positions count the residues as written; N and C are the ends. Square brackets hold non-standard residues; d marks the D form. Peptide text beside a SMILES is read from it. * marks the point of attachment. X24 = NCCNCC(CNCCN)C(=O)N[C@@H](CCC(=O)NC[C@H](O)[C@@H](O)[C@H](O)[C@H](O)CO)C(=O)NCCCOCCOCCOCCCN*; X9 = NCCNCC(CNCCN)C(=O)N[C@@H](CCC(=O)O)C(=O)NCCCOCCOCCOCCCN*; X10 = O=C([C@H](CCCc1cccc(C[*:3])c1)N[*:1])[*:2]; mXylylene = c1cc(C[*:1])cc(C[*:2])c1; PEG6 = NCCOCCOCCOCCOCCOCCOCCC(=O)O; Suc = O=C(CCC(=O)[*:2])[*:1]; X18 = NCCNCC(CNCCN)C(=O)*; Nle = CCCC[C@H](N)C(=O)O Some results are limits rather than exact numbers.

In general, pIC50 refers to the IC50 on a negative log10 scale, so that one unit is a factor of ten. Broadly, the pKd is the Kd on a negative log10 scale, so that one unit is a factor of ten. As for `CCCCCC(=O)N[C@H]1CSCc2cc(CSCCNC(=O)CC[C@H](C(=O)O)N3CCN(CC(=O)O)CN(CC(=O)O)C3)cc(c2)CSC[C@@H](C(=O)O)NC(=O)[C@H](Cc2ccccc2)NC(=O)[C@H](CCC(N)=O)NC(=O)[C@H]([C@@H](C)O)NC(=O)[C@@H]2CCCN2C(=O)[C@@H]2CCCN2C1=O` [3BP-4162, Hex-[Cys-(tMeBn(NODAGA-AET))-Pro-Pro-Thr-Gln-Phe-Cys]-OH], the pIC50 (in assay [1]; on Human recombinant FAP [3]) was > 8.00 in each case. In addition, the negative logarithm of the Kd (pKd) on Human recombinant FAP [2] was > 8.00.

On to `CCCCCC(=O)N[C@H]1CSCc2cc(cc(CN3CCN(C(=O)C(CNCCN)CNCCN)CC3)c2)CSC[C@@H](C(=O)O)NC(=O)[C@H](Cc2ccccc2)NC(=O)[C@H](CCC(N)=O)NC(=O)[C@H]([C@@H](C)O)NC(=O)[C@@H]2CCCN2C(=O)[C@@H]2CCCN2C1=O` [3BP-4168, Hex-[Cys-(tMeBn(N4Ac-PP))-Pro-Pro-Thr-Gln-Phe-Cys]-OH], for which the pIC50 (in assay [1]; at Human recombinant FAP [3]) was > 8.00 in each case. Also, the negative logarithm of the Kd (pKd) on Human recombinant FAP [2] was > 8.00.

As to `CCCCCC(=O)N[C@H]1CSCc2cc(CSCCNC(=O)CCCN(C)C(=O)c3ccccc3-c3c4ccc(=N)c(S(=O)(=O)O)c-4oc4c(S(=O)(=O)O)c(N)ccc34)cc(c2)CSC[C@@H](C(=O)O)NC(=O)[C@H](Cc2ccccc2)NC(=O)[C@H](CCC(N)=O)NC(=O)[C@H]([C@@H](C)O)NC(=O)[C@@H]2CCCN2C(=O)[C@@H]2CCCN2C1=O` [3BP-4182, Hex-[Cys(tMeBn(ATTO488-AET))-Pro-Pro-Thr-Gln-Phe-Cys]-OH], the pIC50 (in assay [1]; on Human recombinant FAP [3]) was 7.10 to 8.00 in each case. Further, the pKd on Human recombinant FAP [2] is 7.10 to 8.00.

Regarding `CCCCCC(=O)N[C@H]1CSCc2cc(CSCCNC(=O)CC[C@@H]3C(=O)[O][Ga]([O]C(=O)CN(C)CC)[O]C(=O)CN(C)CCN3CC)cc(c2)CSC[C@@H](C(=O)O)NC(=O)[C@H](Cc2ccccc2)NC(=O)[C@H](CCC(N)=O)NC(=O)[C@H]([C@@H](C)O)NC(=O)[C@@H]2CCCN2C(=O)[C@@H]2CCCN2C1=O` [3BP-4184, Gallium-Complex of Hex-[Cys(tMeBn(NODAGA-AET))-Pro-Pro-Thr-Gln-Phe-Cys]-OH], the negative-log IC50 (pIC50) (in assay [1]; on Human recombinant FAP [3]) was > 8.00 each time. Moreover, the pKd at Human recombinant FAP [2] is > 8.00.

Consider `CCCC[C@H](NC(=O)CCC(=O)NCCCOCCOCCOCCCNC(=O)C(CNCCN)CNCCN)C(=O)N[C@H]1CSCc2cccc(c2)CSC[C@@H](C(=O)O)NC(=O)[C@H](Cc2ccccc2)NC(=O)[C@H](CCC(N)=O)NC(=O)[C@H]([C@@H](C)O)NC(=O)[C@@H]2CCCN2C(=O)[C@@H]2CCCN2C1=O` [3BP-4219, N4Ac-Ttds-Nle-[Cys-(3MeBn)-Pro-Pro-Thr-Gln-Phe-Cys]-OH], for which the negative logarithm of the IC50 (pIC50) in assay [1] was 7.10 to 8.00; at Human recombinant FAP [3], > 8.00. In addition, on Human recombinant FAP [2], the negative logarithm of the Kd (pKd) was > 8.00.

Take `CCCC[C@H](NC(=O)CCOCCOCCOCCOCCOCCOCCNC(=O)C(CNCCN)CNCCN)C(=O)N[C@H]1CSCc2cccc(c2)CSC[C@@H](C(=O)O)NC(=O)[C@H](Cc2ccccc2)NC(=O)[C@H](CCC(=O)O)NC(=O)[C@H]([C@@H](C)O)NC(=O)[C@@H]2CCCN2C(=O)[C@@H]2CCCN2C1=O` [3BP-4221, N4Ac-PEG6-Nle-[Cys-(3MeBn)-Pro-Pro-Thr-Glu-Phe-Cys]-OH] ({X18-PEG6}-[Nle]CPPTEFC-OH; linker 2-8 via mXylylene): the pIC50 (in assay [1]; on Human recombinant FAP [3]) was 7.10 to 8.00 throughout. Besides, the pKd at Human recombinant FAP [2] is > 8.00.

In the case of `CCCC[C@H](NC(=O)CCC(=O)NCCCOCCOCCOCCCNC(=O)[C@H](CCC(=O)O)NC(=O)C(CNCCN)CNCCN)C(=O)N[C@H]1CSCc2cccc(c2)CCC[C@@H](C(=O)O)NC(=O)[C@H](Cc2ccccc2)NC(=O)[C@H](CCC(=O)O)NC(=O)[C@H]([C@@H](C)O)NC(=O)[C@@H]2CCCN2C(=O)[C@@H]2CCCN2C1=O` [3BP-4222, N4Ac-Glu-Ttds-Nle-[Cys-(3MeBn)-Pro-Pro-Thr-Glu-Phe-Cys]-OH] ({X9-Suc}-[Nle]CPPTEF[X10]-OH; thioether 2-8), the pIC50 (in assay [1]; at Human recombinant FAP [3]) was 7.10 to 8.00 throughout. In addition, at Human recombinant FAP [2], the negative-log Kd (pKd) is > 8.00.

With `CCCC[C@H](NC(=O)CCC(=O)NCCCOCCOCCOCCCNC(=O)[C@H](CCC(=O)NC[C@H](O)[C@@H](O)[C@H](O)[C@H](O)CO)NC(=O)C(CNCCN)CNCCN)C(=O)N[C@H]1CSCc2cccc(c2)CSC[C@@H](C(=O)O)NC(=O)[C@H](Cc2ccccc2)NC(=O)[C@H](CCC(=O)O)NC(=O)[C@H]([C@@H](C)O)NC(=O)[C@@H]2CCCN2C(=O)[C@@H]2CCCN2C1=O` [3BP-4246, N4Ac-Glu(AGLU)-Ttds-Nle-[Cys-(3MeBn)-Pro-Pro-Thr-Gln-Phe-Cys]-OH] ({X24-Suc}-[Nle]CPPTEFC-OH; linker 2-8 via mXylylene), the pIC50 (in assay [1]; on Human recombinant FAP [3]) was 7.10 to 8.00 throughout. At Human recombinant FAP [2], the pKd was > 8.00.
